Measured values reported in ChEMBL document CHEMBL1201862, “PubChem BioAssay data set” (2004).
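Tested at 5 concentrations; 48 h exposure; 96-well plates; endpoints linearly interpolated, else capped at highest concentration. At the GI50, growth is halved.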 Activity calls are given as the source filed them. Rule as the data show it: active = GI50 up to about 1.1 µM and inactive = higher.

How the values were obtained:
Test in all cases: DTP human tumour cell line panel, 48 h
[1] = system: EKVX
[2] = system: SW-620
[3] = system: 786-0
[4] = system: U-251
[5] = system: TK-10
[6] = system: K562
[7] = system: MCF7
[8] = system: COLO 205
[9] = system: UACC-257
[10] = system: NCI-H522
[11] = system: HCT-116
[12] = system: SNB-75
[13] = system: NCI-H460
[14] = system: MDA-MB-435
[15] = system: UACC-62
[16] = system: OVCAR-4
[17] = system: MDA-MB-231
[18] = system: A498
[19] = system: RXF 393
[20] = system: HL-60

Row | Compound | GI50 [1] | GI50 [2] | GI50 [3] | GI50 [4] | GI50 [5] | GI50 [6] | GI50 [7] | GI50 [8] | GI50 [9] | GI50 [10] | GI50 [11] | GI50 [12] | GI50 [13] | GI50 [14] | GI50 [15] | GI50 [16] | GI50 [17] | GI50 [18] | GI50 [19] | GI50 [20]
1 | Cc1cc(C(C)(C)C)cc(CNC2CCCCC2)c1O | 15.7 µM (inactive) | 19.9 µM (inactive) | 16.2 µM (inactive) | 16.3 µM (inactive) | 16.1 µM (inactive) | 21.7 µM (inactive) | 18.1 µM (inactive) | 17.3 µM (inactive) | 14.9 µM (inactive) | 12.6 µM (inactive) | 15.4 µM (inactive) | 12.2 µM (inactive) | 14.8 µM (inactive) | 19.5 µM (inactive) | 16 µM (inactive) | 19.5 µM (inactive) | 18 µM (inactive) | 16.6 µM (inactive) | < 0.01 µM (active) | 
2 | c1cc(CCN2CCCCC2)ccn1 | > 100 µM (inactive) | > 100 µM (inactive) | > 100 µM (inactive) | > 100 µM (inactive) | > 100 µM (inactive) | > 100 µM (inactive) | > 100 µM (inactive) | > 100 µM (inactive) | > 100 µM (inactive) | > 100 µM (inactive) | > 100 µM (inactive) | > 100 µM (inactive) | > 100 µM (inactive) | > 100 µM (inactive) | > 100 µM (inactive) | > 100 µM (inactive) | > 100 µM (inactive) | > 100 µM (inactive) | > 100 µM (inactive) | 
3 | CCOc1nc2c(N3CCCC3)nc(N3CCNCC3)nc2nc1NCc1ccccc1 | 2.1 µM (inactive) | 1.73 µM (inactive) | 1.39 µM (inactive) | 1.17 µM (inactive) | 1.9 µM (inactive) | 1.2 µM (inactive) | 1.53 µM (inactive) | 0.574 µM (active) | 1.74 µM (inactive) | 0.82 µM (active) | 0.923 µM (active) | 0.975 µM (active) | 1.41 µM (inactive) | 1.34 µM (inactive) | 1.83 µM (inactive) | 2.42 µM (inactive) | 1.45 µM (inactive) |  | 1.03 µM (active) | 1.4 µM (inactive)
4 | Cc1ccsc1/C=N/Nc1ccccn1 | 15.2 µM (inactive) | 74.3 µM (inactive) | 68.5 µM (inactive) | 76.6 µM (inactive) | 57.3 µM (inactive) | 43.1 µM (inactive) | 1.71 µM (inactive) | 71.1 µM (inactive) | 54.2 µM (inactive) |  | 43.8 µM (inactive) | 50.2 µM (inactive) |  | 50.6 µM (inactive) | 74 µM (inactive) | 76.2 µM (inactive) | 50 µM (inactive) | 55 µM (inactive) | > 100 µM (inactive) | 
5 | CN(/N=C/c1cccs1)c1ccc(Cl)cc1[N+](=O)[O-] | 32.7 µM (inactive) | 12.3 µM (inactive) | 59.6 µM (inactive) | 13.7 µM (inactive) | 35.2 µM (inactive) | 5.78 µM (inactive) | 18 µM (inactive) | > 10 µM (inactive) | 35.6 µM (inactive) | 22.6 µM (inactive) | 26.2 µM (inactive) | 30.8 µM (inactive) | 23.3 µM (inactive) | 5.57 µM (inactive) | 47 µM (inactive) | 59.3 µM (inactive) | 14.2 µM (inactive) |  | 23.6 µM (inactive) | 6.75 µM (inactive)
6 | Cc1n[n+](CC(=O)c2ccccc2)c2sc(N)nn12 | > 100 µM (inactive) | > 100 µM (inactive) | > 100 µM (inactive) | > 100 µM (inactive) | > 100 µM (inactive) | > 100 µM (inactive) | > 100 µM (inactive) | > 100 µM (inactive) | > 100 µM (inactive) | > 100 µM (inactive) | > 100 µM (inactive) | > 100 µM (inactive) | > 100 µM (inactive) | > 100 µM (inactive) | > 100 µM (inactive) | > 100 µM (inactive) | > 100 µM (inactive) | > 100 µM (inactive) | > 100 µM (inactive) | 
7 | O=C1CCCCCCCCCCC1CN(Cc1ccccc1)Cc1ccccc1 (centres undefined) | 36.1 µM (inactive) | 45.6 µM (inactive) | 42.6 µM (inactive) | 18.8 µM (inactive) | > 100 µM (inactive) | 36.3 µM (inactive) | 23.7 µM (inactive) | > 100 µM (inactive) | 32.2 µM (inactive) | 41.3 µM (inactive) | 17.3 µM (inactive) | 2.84 µM (inactive) |  | 37.1 µM (inactive) | 13.7 µM (inactive) | > 100 µM (inactive) | 77.6 µM (inactive) |  | 15.4 µM (inactive) | 23.9 µM (inactive)
8 | CC(=O)Nc1ccc(S(=O)(=O)Nc2nc(-c3ccc(Cl)cc3)cc(N3N=C(c4ccc(Br)cc4)CC3c3ccccc3)n2)cc1 (centres undefined) | 13.6 µM (inactive) | 20.4 µM (inactive) | 18.8 µM (inactive) | 16.8 µM (inactive) | 14 µM (inactive) | 7.21 µM (inactive) | 2.87 µM (inactive) | 14.1 µM (inactive) | 17.5 µM (inactive) | 14.8 µM (inactive) | 14.4 µM (inactive) |  | 16.9 µM (inactive) | 7.45 µM (inactive) | 12.6 µM (inactive) | 15 µM (inactive) | 13.9 µM (inactive) |  | 13.8 µM (inactive) | 14.2 µM (inactive)
9 | Cc1ccc(S(=O)(=O)c2scc(-c3ccccc3)c2C)cc1 | 37.6 µM (inactive) | > 100 µM (inactive) | > 100 µM (inactive) | > 100 µM (inactive) | > 100 µM (inactive) | 53 µM (inactive) | 61.1 µM (inactive) | > 100 µM (inactive) | 74 µM (inactive) | > 100 µM (inactive) | 77.1 µM (inactive) | > 100 µM (inactive) | > 100 µM (inactive) | 91 µM (inactive) | > 100 µM (inactive) | > 100 µM (inactive) | > 100 µM (inactive) |  | > 100 µM (inactive) | 45 µM (inactive)
10 | CCCCCCCCCCCCOc1ccc(/C=C/C2=[N+](CCCl)CCO2)cc1 | 97.1 µM (inactive) | > 100 µM (inactive) | 19.2 µM (inactive) | 24.3 µM (inactive) | 47.6 µM (inactive) | 21.3 µM (inactive) | 54.2 µM (inactive) | > 100 µM (inactive) | 63.2 µM (inactive) | 17 µM (inactive) | 15.8 µM (inactive) | 45.5 µM (inactive) | 43.4 µM (inactive) | 94.2 µM (inactive) | 93.3 µM (inactive) | 41.7 µM (inactive) | 25.1 µM (inactive) | > 100 µM (inactive) |  | 12.8 µM (inactive)
11 | O=[N+]([O-])C(=C(Nc1ccccc1)Nc1ccccc1)/C(Cl)=C(\Cl)[N+](=O)[O-] | 5.62 µM (inactive) | 2.19 µM (inactive) | 3.15 µM (inactive) | 4.92 µM (inactive) | 5.16 µM (inactive) | 3.41 µM (inactive) | 4.14 µM (inactive) | 2.67 µM (inactive) | 5.97 µM (inactive) |  | 2.73 µM (inactive) | 7.57 µM (inactive) | 14.7 µM (inactive) | 3.26 µM (inactive) | 4.58 µM (inactive) | 6.62 µM (inactive) | 3.88 µM (inactive) | 19.7 µM (inactive) | 1.89 µM (inactive) | 
12 | C/C1=C\[C@H](C)C[C@H](C)OC(=O)C[C@H](c2ccc(O)cc2)NC(=O)[C@H](Cc2ccc(O)c(Br)c2)N(C)C(=O)[C@H](C)NC(=O)[C@@H](C)C1 | > 25 µM (inactive) | > 25 µM (inactive) | > 25 µM (inactive) | > 25 µM (inactive) | > 25 µM (inactive) | > 25 µM (inactive) | > 25 µM (inactive) | > 25 µM (inactive) |  | > 25 µM (inactive) | > 25 µM (inactive) | > 25 µM (inactive) |  | > 25 µM (inactive) | > 25 µM (inactive) | > 25 µM (inactive) | > 25 µM (inactive) | > 25 µM (inactive) |  | 
13 | CNC(=O)C1CCC(=O)N1CN(C(C)=O)c1ccccc1 (centres undefined) | > 100 µM (inactive) | > 100 µM (inactive) | > 100 µM (inactive) | > 100 µM (inactive) | > 100 µM (inactive) | > 100 µM (inactive) | > 100 µM (inactive) | > 100 µM (inactive) | > 100 µM (inactive) | > 100 µM (inactive) | > 100 µM (inactive) | > 100 µM (inactive) | > 100 µM (inactive) | > 100 µM (inactive) | > 100 µM (inactive) | > 100 µM (inactive) | > 100 µM (inactive) | > 100 µM (inactive) | > 100 µM (inactive) | 
14 | N=c1sc(N2CCOCC2)nn1CC(=O)c1ccccc1 | > 100 µM (inactive) | > 100 µM (inactive) | > 100 µM (inactive) | > 100 µM (inactive) | > 100 µM (inactive) | > 100 µM (inactive) | 53.5 µM (inactive) | > 100 µM (inactive) | > 100 µM (inactive) | > 100 µM (inactive) | > 100 µM (inactive) | > 100 µM (inactive) | > 100 µM (inactive) | > 100 µM (inactive) | > 100 µM (inactive) | > 100 µM (inactive) | > 100 µM (inactive) |  | > 100 µM (inactive) | > 100 µM (inactive)
15 | CC[C@]1(O)C[C@H]2CN(CCc3c([nH]c4ccccc34)[C@@](C(=O)OC)(c3cc4c(cc3OC)N(C)[C@H]3[C@@](O)(C(=O)OC)[C@H](OC(C)=O)[C@]5(CC)C=CCN6CC[C@]43[C@@H]65)C2)C1 | 0.0259 µM (active) | 0.000564 µM (active) | 0.000964 µM (active) | 0.000715 µM (active) |  | 0.000508 µM (active) | 0.00045 µM (active) | 0.000435 µM (active) |  | 0.000309 µM (active) | 0.000481 µM (active) |  | 0.000629 µM (active) | 0.000386 µM (active) | 0.000373 µM (active) | 0.136 µM (active) | 0.000991 µM (active) | 0.00252 µM (active) |  | 0.00042 µM (active)
